Experiment [1] concerns the target Human norepinephrine transporter (NET) (Homo sapiens, UniProt P23975). In words: Binding assay to human norepinephrine transporter (NET), [3H]-Nisoxetin. The following applies: human NET enriched membranes, 5 nM [3H]-Nisoxetin. On the procedure: Binding Assay to Human Norepinephrine Transporter (NET).
Human norepinephrine transporter (NET) enriched membranes (5 μg) were incubated with 5 nM of radiolabeled [3H]-Nisoxetin in assay buffer containing 50 mM Tris-HCl, 120 mM NaCl, 5 mM KCl, pH 7.4. NSB (non specific binding) was measured by adding 10 μM of desipramine. The binding of the test compound was measured at five different concentrations. After 60 min incubation at 4° C., binding reaction was terminated by filtering through Multiscreen GF/C (Millipore) presoaked in 0.5% polyethyleneimine in Vacuum Manifold Station, followed by 3 washes with ice-cold filtration buffer containing 50 mM Tris-HCl, 0.9% NaCl, pH 7.4. Filter plates were dried at 60° C. for 1 hour and 30 μl of scintillation cocktail were added to each well before radioactivity reading. Readings were performed in a Trilux 1450 Microbeta radioactive counter (Perkin Elmer).

In experiment [2] the target is Human α2δ-1 Subunit of Cav2.2 Calcium Channel (Homo sapiens, UniProt P54289). Briefly: Human α2δ-1 subunit of Cav2.2 calcium channel assay, [3H]-Gabapentin binding. To be noted: human α2δ-1 enriched membranes, 15 nM [3H]-Gabapentin. The method, then:
Human α2δ-1 Subunit of Cav2.2 Calcium Channel Assay
Human α2δ-1 enriched membranes (2.5 μg) were incubated with 15 nM of radiolabeled [3H]-Gabapentin in assay buffer containing Hepes-KOH 10 mM, pH 7.4. NSB (non specific binding) was measured by adding 10 μM pregabalin. The binding of the test compound was measured at five different concentrations. After 60 min incubation at 27° C., binding reaction was terminated by filtering through Multiscreen GF/C (Millipore) presoaked in 0.5% polyethyleneimine in Vacuum Manifold Station, followed by 3 washes with ice-cold filtration buffer containing 50 mM Tris-HCl, pH 7.4. Filter plates were dried at 60° C. for 1 hour and 30 μl of scintillation cocktail were added to each well before radioactivity reading. Readings were performed in a Trilux 1450 Microbeta radioactive counter (Perkin Elmer).

This is an account of results in patent US20200190081A1, “META SUBSTITUTED PHENYLPYRAZOLO- AND PHENYLPYRROLO- PYRIDAZINE DERIVATIVES HAVING MULTIMODAL ACTIVITY AGAINST PAIN” (ESTEVE PHARMACEUTICALS, S.A., priority 2016, published 2020).

Chain of Human norepinephrine transporter (NET) (P23975 whole entry): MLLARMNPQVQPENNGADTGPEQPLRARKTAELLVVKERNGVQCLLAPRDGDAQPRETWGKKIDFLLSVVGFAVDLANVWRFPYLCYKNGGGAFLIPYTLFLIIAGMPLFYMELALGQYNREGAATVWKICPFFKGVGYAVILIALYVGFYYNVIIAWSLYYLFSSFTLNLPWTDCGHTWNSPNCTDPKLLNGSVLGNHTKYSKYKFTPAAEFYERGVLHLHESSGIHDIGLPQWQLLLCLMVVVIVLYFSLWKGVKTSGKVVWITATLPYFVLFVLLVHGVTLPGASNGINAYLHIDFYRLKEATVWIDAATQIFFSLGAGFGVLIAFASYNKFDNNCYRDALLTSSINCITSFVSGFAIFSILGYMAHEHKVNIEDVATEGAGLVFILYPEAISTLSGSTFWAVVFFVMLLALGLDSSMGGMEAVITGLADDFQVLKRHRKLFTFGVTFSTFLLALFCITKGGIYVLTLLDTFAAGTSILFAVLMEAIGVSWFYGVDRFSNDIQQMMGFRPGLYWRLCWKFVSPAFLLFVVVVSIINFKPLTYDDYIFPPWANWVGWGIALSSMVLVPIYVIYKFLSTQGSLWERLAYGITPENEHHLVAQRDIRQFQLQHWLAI
Chain of Human α2δ-1 Subunit of Cav2.2 Calcium Channel (P54289 25-1103): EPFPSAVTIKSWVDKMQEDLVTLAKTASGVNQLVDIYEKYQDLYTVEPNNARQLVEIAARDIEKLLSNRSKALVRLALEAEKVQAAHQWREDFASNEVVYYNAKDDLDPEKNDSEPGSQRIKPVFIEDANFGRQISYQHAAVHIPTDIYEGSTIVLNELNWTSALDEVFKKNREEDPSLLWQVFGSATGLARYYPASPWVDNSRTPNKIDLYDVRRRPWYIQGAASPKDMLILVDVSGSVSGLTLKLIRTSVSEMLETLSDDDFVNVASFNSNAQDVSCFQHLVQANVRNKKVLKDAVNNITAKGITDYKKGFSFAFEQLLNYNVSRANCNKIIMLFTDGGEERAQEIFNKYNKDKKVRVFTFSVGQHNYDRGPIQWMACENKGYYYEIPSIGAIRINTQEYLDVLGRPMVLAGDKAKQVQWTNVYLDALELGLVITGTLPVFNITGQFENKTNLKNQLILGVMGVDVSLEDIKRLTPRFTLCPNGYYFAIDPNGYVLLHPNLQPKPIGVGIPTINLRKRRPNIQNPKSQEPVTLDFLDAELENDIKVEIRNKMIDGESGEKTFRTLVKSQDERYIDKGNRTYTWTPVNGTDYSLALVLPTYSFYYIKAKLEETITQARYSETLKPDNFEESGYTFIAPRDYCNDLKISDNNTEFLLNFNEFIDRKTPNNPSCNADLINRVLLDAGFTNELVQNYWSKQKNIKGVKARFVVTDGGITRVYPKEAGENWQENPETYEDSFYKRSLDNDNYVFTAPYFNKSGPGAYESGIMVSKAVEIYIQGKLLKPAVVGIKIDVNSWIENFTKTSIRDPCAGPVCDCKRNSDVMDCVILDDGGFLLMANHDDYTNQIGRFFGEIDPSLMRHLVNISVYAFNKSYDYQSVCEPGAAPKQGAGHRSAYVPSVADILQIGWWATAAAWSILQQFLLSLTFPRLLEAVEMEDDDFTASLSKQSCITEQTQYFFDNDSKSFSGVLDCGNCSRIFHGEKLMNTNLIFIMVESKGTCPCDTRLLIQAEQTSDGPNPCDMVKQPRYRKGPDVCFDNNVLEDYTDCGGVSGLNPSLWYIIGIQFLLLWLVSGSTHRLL

Regarding `CNCCC(Oc1cccc(-n2nc3c(N(C)CCCO)nnc(C)c3c2C)c1)c1ccccc1F` (centres unmarked) [Example 32, 3-((2-(3-(1-(2-fluorophenyl)-3-(methylamino)propoxy)phenyl)-3,4-dimethyl-2H-pyrazolo[3,4-d]pyridazin-7-yl)(methyl)amino)propan-1-ol], the values for the Ki in experiment [1] and in experiment [2] were < 0.1 µM and 0.5 to 5 µM, respectively.

As to `CNC[C@@H](Oc1cccc(-n2nc3c(N(C)C)nnc(C)c3c2C)c1)c1ccccc1` [Example 61, (S)-N,N,3,4-tetramethyl-2-(3-(2-(methylamino)-1-phenylethoxy)phenyl)-2H-pyrazolo[3,4-d]pyridazin-7-amine], the Ki (as a rule, a measure of affinity in units of concentration, obtained from inhibition or displacement) in experiment [1] is < 0.1 µM; in experiment [2], 0.5 to 5 µM.

As to `CNCCC(Oc1cccc(-n2nc3c(N(C)C)nnc(C)c3c2C)c1)c1cccnc1` (centres unmarked) [Example 42, N,N,3,4-tetramethyl-2-(3-(3-(methylamino)-1-(pyridin-3-yl)propoxy)phenyl)-2H-pyrazolo[3,4-d]pyridazin-7-amine], the Ki in experiment [1] is 0.1 to 0.5 µM; in experiment [2] it was < 0.5 µM.

With `CNCCC(Oc1cccc(-n2nc3c(N(C)C)nnc(C)c3c2C)c1)c1cccc(OC)c1` (centres unmarked) [Example 39, 2-(3-(1-(3-methoxyphenyl)-3-(methylamino)propoxy)phenyl)-N,N,3,4-tetramethyl-2H-pyrazolo[3,4-d]pyridazin-7-amine], the Ki is < 0.1 µM in experiment [1] and 0.5 to 5 µM in experiment [2].

As for `CNCC[C@@H](Oc1cccc(-n2nc3c(N(C)C)nnc(C)c3c2C)c1)c1ccccc1` [Example 59, (R)-N,N,3,4-tetramethyl-2-(3-(3-(methylamino)-1-phenylpropoxy)phenyl)-2H-pyrazolo[3,4-d]pyridazin-7-amine], the results for the Ki in experiment [1] and in experiment [2] were 0.1 to 0.5 µM and 0.5 to 5 µM, respectively.

Turning to `CNCCC(Oc1cccc(-n2nc3c(N(C)C)nnc(C)c3c2C)c1)c1cccc(C#N)c1` (centres unmarked) [Example 11, 3-(1-(3-(7-(dimethylamino)-3,4-dimethyl-2H-pyrazolo[3,4-d]pyridazin-2-yl)phenoxy)-3-(methylamino)propyl)benzonitrile], the Ki was < 0.1 µM in experiment [1] and 0.5 to 5 µM in experiment [2].

On to `CNC1(CC(Oc2cccc(-n3nc4c(N(C)C)nnc(C)c4c3C)c2)c2ccccc2)CC1` (centres unmarked) [Example 49, N,N,3,4-tetramethyl-2-(3-(2-(1-(methylamino)cyclopropyl)-1-phenylethoxy)phenyl)-2H-pyrazolo[3,4-d]pyridazin-7-amine], for which the Ki in experiment [1] is < 0.1 µM; in experiment [2], 0.5 to 5 µM.

Regarding `Cc1nnc(N(C)C)c2nn(-c3cccc(OCC4CCN(CCc5ccccc5)CC4)c3)c(C)c12` [Example 53, N,N,3,4-Tetramethyl-2-(3-((1-phenethylpiperidin-4-yl)methoxy)phenyl)-2H-pyrazolo[3,4-d]pyridazin-7-amine], the Ki in experiment [1] was in the range of 0.1 to 0.5 µM; in experiment [2], 0.5 to 5 µM.

As to `CNCCC(Oc1cccc(-n2nc3c(N(C)C)nnc(C)c3c2C)c1)c1cccs1` (centres unmarked) [Example 51, N,N,3,4-Tetramethyl-2-(3-(3-(methylamino)-1-(thiophen-2-yl)propoxy)phenyl)-2H-pyrazolo[3,4-d]pyridazin-7-amine], the Ki is < 0.1 µM in experiment [1] and 0.5 to 5 µM in experiment [2].

In the case of `CCNCCC(Oc1cccc(-n2nc3c(N(C)C)nnc(C)c3c2C)c1)c1ccccc1` (centres unmarked) [Example 3, 2-(3-(3-(ethylamino)-1-phenylpropoxy)phenyl)-N,N,3,4-tetramethyl-2H-pyrazolo[3,4-d]pyridazin-7-amine], the Ki in experiment [1] lay within 0.1 to 0.5 µM; in experiment [2] it was 0.5 to 5 µM.

For `CNCC(Oc1cccc(-n2nc3c(N(C)C)nnc(C)c3c2C)c1)c1ccccc1` (centres unmarked) [Example 35, N,N,3,4-tetramethyl-2-(3-(2-(methylamino)-1-phenylethoxy)phenyl)-2H-pyrazolo[3,4-d]pyridazin-7-amine], the Ki in experiment [1] was < 0.1 µM; in experiment [2], 0.5 to 5 µM.

With `CNCC(Oc1cccc(-n2nc3c(N(C)C)nnc(C)c3c2C)c1)c1cccc(F)c1` (centres unmarked) [Example 43, 2-(3-(1-(3-fluorophenyl)-2-(methylamino)ethoxy)phenyl)-N,N,3,4-tetramethyl-2H-pyrazolo[3,4-d]pyridazin-7-amine], the Ki in experiment [1] is < 0.1 µM; in experiment [2], 0.5 to 5 µM.

As to `CNCCC(Oc1cccc(-n2nc3c(N(C)C)nnc(C)c3c2C)c1)c1ccc(OC(F)(F)F)cc1` (centres unmarked) [Example 46, N,N,3,4-tetramethyl-2-(3-(3-(methylamino)-1-(4-(trifluoromethoxy)phenyl)propoxy)phenyl)-2H-pyrazolo[3,4-d]pyridazin-7-amine], the Ki was in the range of 0.1 to 0.5 µM in experiment [1] and 0.5 to 5 µM in experiment [2].

In the case of `CNCCC(Oc1cccc(-n2nc3c(N)nnc(C)c3c2C)c1)c1ccccc1F` (centres unmarked) [Example 26, 2-(3-(1-(2-fluorophenyl)-3-(methylamino)propoxy)phenyl)-3,4-dimethyl-2H-pyrazolo[3,4-d]pyridazin-7-amine], the Ki in experiment [1] fell in the range of 0.1 to 0.5 µM; in experiment [2] it was 0.5 to 5 µM.

Consider `Cc1nnc(N(C)C)c2nn(-c3cccc(OC(CCNCCF)c4ccccc4)c3)c(C)c12` (centres unmarked) [Example 54, 2-(3-(3-((2-fluoroethyl)amino)-1-phenylpropoxy)phenyl)-N,N,3,4-tetramethyl-2H-pyrazolo[3,4-d]pyridazin-7-amine], for which the Ki lay within 0.1 to 0.5 µM in experiment [1] and 0.5 to 5 µM in experiment [2].

Take `CNCC[C@H](Oc1cccc(-n2nc3c(N(C)C)nnc(C)c3c2C)c1)c1ccccc1` [Example 58, (S)-N,N,3,4-Tetramethyl-2-(3-(3-(methylamino)-1-phenylpropoxy)phenyl)-2H-pyrazolo[3,4-d]pyridazin-7-amine]: the values for the Ki in experiment [1] and in experiment [2] were < 0.1 µM and 0.5 to 5 µM, respectively.

As to `CNCC[C@H](Oc1cccc(-n2nc3c(N(C)C)nnc(C)c3c2C)c1)c1cccnc1` [Example 64, (S)-N,N,3,4-tetramethyl-2-(3-(3-(methylamino)-1-(pyridin-3-yl)propoxy)phenyl)-2H-pyrazolo[3,4-d]pyridazin-7-amine], the figures for the Ki in experiment [1] and in experiment [2] were 0.1 to 0.5 µM and < 0.5 µM, respectively.

For the compound `Cc1nnc(N(C)C)c2nn(-c3cccc(O[C@H](c4ccccc4)[C@@H]4CNCCO4)c3)c(C)c12` (racemic) [Example 12, N,N,3,4-tetramethyl-2-(3-((R)-((S)-morpholin-2-yl)(phenyl)methoxy)phenyl)-2H-pyrazolo[3,4-d]pyridazin-7-amine], the Ki in experiment [1] lay within 0.1 to 0.5 µM; in experiment [2], 0.5 to 5 µM.

Take `CNCCC(Oc1cccc(-n2nc3c(N(C)C)nnc(C)c3c2C)c1)c1cccc(F)c1` (centres unmarked) [Example 5, 2-(3-(1-(3-fluorophenyl)-3-(methylamino)propoxy)phenyl)-N,N,3,4-tetramethyl-2H-pyrazolo[3,4-d]pyridazin-7-amine]: the Ki in experiment [1] is < 0.1 µM; in experiment [2], 0.5 to 5 µM.

As to `CNCCC(Oc1cccc(-n2nc3c(N)nnc(C)c3c2C)c1)c1ccccc1` (centres unmarked) [Example 27, 3,4-dimethyl-2-(3-(3-(methylamino)-1-phenylpropoxy)phenyl)-2H-pyrazolo[3,4-d]pyridazin-7-amine], the Ki in experiment [1] is < 0.1 µM; in experiment [2] it was 0.5 to 5 µM.

With `CNCC[C@@H](Oc1cccc(-n2nc3c(N(C)C)nnc(C)c3c2C)c1)c1cccnc1` [Example 65, (R)-N,N,3,4-tetramethyl-2-(3-(3-(methylamino)-1-(pyridin-3-yl)propoxy)phenyl)-2H-pyrazolo[3,4-d]pyridazin-7-amine], the Ki in experiment [1] is 0.5 to 1 µM; in experiment [2] it was 0.5 to 5 µM.

For the compound `Cc1nnc(N(C)C)c2nn(-c3cccc(OC(Cc4ccccc4)CN(C)Cc4ccccc4)c3)c(C)c12` (centres unmarked) [Example 44, 2-(3-((1-(benzyl(methyl)amino)-3-phenylpropan-2-yl)oxy)phenyl)-N,N,3,4-tetramethyl-2H-pyrazolo[3,4-d]pyridazin-7-amine], the Ki was ≥ 1 µM in experiment [1] and ≥ 5 µM in experiment [2].

For `Cc1nnc(N(C)C)c2nn(-c3cccc(OC(CCN)c4ccc(F)cc4)c3)c(C)c12` (centres unmarked) [Example 20, 2-(3-(3-amino-1-(4-fluorophenyl)propoxy)phenyl)-N,N,3,4-tetramethyl-2H-pyrazolo[3,4-d]pyridazin-7-amine], the figures for the Ki in experiment [1] and in experiment [2] were 0.1 to 0.5 µM and 0.5 to 5 µM, respectively.

In the case of `CNCCC(Oc1cccc(-n2nc3c(N(C)C)nnc(C)c3c2C)c1)c1nccs1` (centres unmarked) [Example 34, N,N,3,4-Tetramethyl-2-(3-(3-(methylamino)-1-(thiazol-2-yl)propoxy)phenyl)-2H-pyrazolo[3,4-d]pyridazin-7-amine], the Ki was ≥ 1 µM in experiment [1] and < 0.5 µM in experiment [2].

Turning to `Cc1nnc(N(C)C)c2nn(-c3cccc(O[C@@H](c4ccccc4)[C@@H]4CNCCO4)c3)c(C)c12` (racemic) [Example 13, N,N,3,4-tetramethyl-2-(3-((S)-((S)-morpholin-2-yl)(phenyl)methoxy)phenyl)-2H-pyrazolo[3,4-d]pyridazin-7-amine], the Ki in experiment [1] was 0.5 to 1 µM; in experiment [2], 0.5 to 5 µM.
